The target in test [1] is mouse TAAR1 (Mus musculus (Mouse), UniProt Q923Y8). Nature of the test: Radioligand binding assay on mouse TAAR1. The following applies: mouse TAAR1, membranes of stably transfected HEK-293 cells; first value of the pair; read-out: Ki (μM) mouse/rat: mouse. How it is done: (§1) For the construction of expression plasmids the coding sequences of human, rat and mouse TAAR 1 were amplified from genomic DNA essentially as described by Lindemann et al.. The Expand High Fidelity PCR System (Roche Diagnostics) was used with 1.5 mM Mg^2+ and purified PCR products were cloned into pCR2.1-TOPO cloning vector (Invitrogen) following the instructions of the manufacturer. PCR products were subcloned into the pIRESneo2 vector (BD Clontech, Palo Alto, Calif.), and expression vectors were sequence verified before introduction in cell lines.
Chain of mouse TAAR1 (Q923Y8 whole entry): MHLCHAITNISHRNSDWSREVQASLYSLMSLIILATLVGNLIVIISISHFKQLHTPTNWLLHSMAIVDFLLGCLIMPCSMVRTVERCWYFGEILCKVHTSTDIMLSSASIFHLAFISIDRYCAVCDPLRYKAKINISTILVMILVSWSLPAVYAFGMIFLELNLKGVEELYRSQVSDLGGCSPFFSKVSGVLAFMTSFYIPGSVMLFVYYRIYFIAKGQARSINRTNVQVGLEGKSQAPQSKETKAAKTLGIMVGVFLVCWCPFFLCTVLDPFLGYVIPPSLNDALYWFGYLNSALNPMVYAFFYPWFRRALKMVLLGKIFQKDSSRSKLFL
(§2) For the generation of stably transfected cell lines HEK293 cells were transfected with the pIRESneo2 expression plasmids containing the TAAR coding sequences (described above) with Lipofectamine 2000 (Invitrogen) according to the instructions of the manufacturer, and 24 hrs post transfection the culture medium was supplemented with 1 mg/ml G418 (Sigma, Buchs, Switzerland). After a culture period of about 10 d clones were isolated, expanded and tested for responsiveness to trace amines (all compounds purchased from Sigma) with the cAMP Biotrak Enzyme immunoassay (EIA) System (Amersham) following the non-acetylation EIA procedure provided by the manufacturer.
Radioligand Binding Assay on Mouse TAAR1
(§3) Membrane Preparation and Radioligand Binding.
(§4) Cells were released from culture flasks using trypsin/EDTA, harvested, washed twice with ice-cold PBS (without Ca^2+ and Mg^2+), pelleted at 1,000 rpm for 5 min at 4° C., frozen and stored at −80° C. Frozen pellets were suspended in 20 ml HEPES-NaOH (20 mM, pH 7.4) containing 10 mM EDTA and homogenized with a Polytron (PT 6000, Kinematica) at 14′000 rpm for 20 s. The homogenate was centrifuged at 48,000×g for 30 min at 4° C. Subsequently, the supernatant was removed and discarded, and the pellet resuspended in 20 ml HEPES-NaOH (20 mM, pH 7.4) containing 0.1 mM EDTA using the Polytron (20 s at 14′000 rpm). This procedure was repeated and the final pellet resuspended in HEPES-NaOH containing 0.1 mM EDTA and homogenized using the Polytron. Typically, aliquots of 2 ml membrane portions were stored at −80° C. With each new membrane batch the dissociation constant (Kd) was determined via a saturation curve. […] Nonspecific binding was defined as the amount of ^3[H]—(S)-4-[(ethyl-phenyl-amino)-methyl]-4,5-dihydro-oxazol-2-ylamine bound in the presence of 10 μM unlabeled ligand. All compounds were tested at a broad range of concentrations (10 pM to 10 μM) in duplicates. […] The 96 deep well plates were incubated for 1 hr at 4° C. Incubations were terminated by rapid filtration through Unifilter-96 plates (Packard Instrument Company) and glass filters GF/C (Perkin Elmer) presoaked for 1 hr in polyethylenimine (0.3%) and washed 3 times with 1 ml of cold binding buffer. After addition of 45 μl of Microscint 40 (PerkinElmer) the Unifilter-96 plate was sealed and after 1 hr the radioactivity counted using a TopCount Microplate Scintillation Counter (Packard Instrument Company).

In test [2] the target is rat TAAR1 (Rattus norvegicus (Rat), UniProt Q923Y9). Put plainly: Radioligand binding assay on rat TAAR1. The following applies: rat TAAR1, membranes of stably transfected HEK-293 cells; second value of the pair; read-out: Ki (μM) mouse/rat: rat. How it is done: as §1, §2
Chain of rat TAAR1 (Q923Y9 whole entry): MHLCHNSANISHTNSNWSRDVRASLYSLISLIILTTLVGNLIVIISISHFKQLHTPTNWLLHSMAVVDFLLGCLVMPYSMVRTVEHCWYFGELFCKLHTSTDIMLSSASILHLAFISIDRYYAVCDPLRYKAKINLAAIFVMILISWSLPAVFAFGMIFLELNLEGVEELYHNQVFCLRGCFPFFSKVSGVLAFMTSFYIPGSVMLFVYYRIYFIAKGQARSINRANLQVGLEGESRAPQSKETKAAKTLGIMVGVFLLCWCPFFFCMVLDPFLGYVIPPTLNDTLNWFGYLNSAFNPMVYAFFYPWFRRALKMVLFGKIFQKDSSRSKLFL
Radioligand Binding Assay on Rat TAAR1
as §3
as §4, with “1′000” for “1,000”, “48′000×g” for “48,000×g”

Take `Cc1cc(NC(=O)Nc2cccc(Cl)c2)cnc1C1CNCCO1` (racemic) [Example 119, (RS)-1-(3-Chlorophenyl)-3-(5-methyl-6-morpholin-2-yl-3-pyridyl)urea]: the Ki came out at 0.0533 µM in test [1] and 0.243 µM in test [2]. Regarding `O=C(Nc1cnc(C2CNCCO2)c(F)c1)c1ccnc(C(F)(F)F)c1` (racemic) [Example 113, (RS)—N-(5-Fluoro-6-morpholin-2-yl-3-pyridyl)-2-(trifluoromethyl)pyridine-4-carboxamide], the Ki in test [1] was found to be 0.0557 µM; in test [2], 1.31 µM.

For `FC(F)(F)c1nccc(Nc2ccc(C3CNCCO3)nc2)n1` (racemic) [Example 17, (RS)—N-(6-Morpholin-2-yl-3-pyridyl)-2-(trifluoromethyl)pyrimidin-4-amine], the values for the Ki in test [1] and in test [2] were 0.0382 µM and 0.466 µM, respectively.

As to `O=C(Nc1cnc(C2CNCCO2)nc1)c1ccc(Cl)cc1` (racemic) [Example 72, (RS)-4-Chloro-N-(2-morpholin-2-ylpyrimidin-5-yl)benzamide], the Ki in test [1] was found to be 0.0058 µM; in test [2] it was 4.93 µM. `O=C(Nc1ccc(F)cc1)Nc1ccc(C2CNCCO2)nc1` (racemic) [Example 9, (RS)-1-(4-Fluorophenyl)-3-(6-morpholin-2-yl-3-pyridyl)urea]: the Ki stood at 0.0071 µM in test [1] and 0.0106 µM in test [2].

`CCCc1n[nH]c(C(=O)Nc2cnc(C3CNCCO3)c(Cl)c2)c1Cl` (racemic) [Example 108, (RS)-4-Chloro-N-(5-chloro-6-morpholin-2-yl-3-pyridyl)-3-propyl-1H-pyrazole-5-carboxamide]: the Ki in test [1] was 0.0241 µM.

For `Cc1cc(C(=O)Nc2ccc([C@H]3CNCCO3)nc2)nc(C(F)(F)F)n1` [Example 68, (R)-6-Methyl-N-(6-(morpholin-2-yl)pyridin-3-yl)-2-(trifluoromethyl)pyrimidine-4-carboxamide], the Ki in test [1] came out at 0.0731 µM; in test [2], 0.0469 µM.

For `CC(C)c1n[nH]c(C(=O)Nc2ccc([C@H]3CNCCO3)nc2)c1F` [Example 116, 4-Fluoro-3-isopropyl-N-[6-[(2R)-morpholin-2-yl]-3-pyridyl]-1H-pyrazole-5-carboxamide], the figures for the Ki in test [1] and in test [2] were 0.015 µM and 0.12 µM, respectively. Taken in the same sequence, the figures for `CCCCc1cc(C(=O)Nc2ccc([C@H]3CNCCO3)nc2)[nH]n1` [Example 97, 3-Butyl-N-[6-[(2R)-morpholin-2-yl]-3-pyridyl]-1H-pyrazole-5-carboxamide] were 0.0043 µM and 0.0387 µM. Take `O=C(Nc1ccc([C@H]2CNCCO2)nc1)c1cccc(Cl)c1` [Example 52, 3-Chloro-N-[6-[(2R)-morpholin-2-yl]-3-pyridyl]benzamide]: the Ki in test [2] is 0.0922 µM.

On to `O=C(Nc1ccc([C@H]2CNCCO2)nc1)c1ccc(OCC(F)(F)F)nc1` [Example 56, N-[6-[(2R)-Morpholin-2-yl]-3-pyridyl]-6-(2,2,2-trifluoroethoxy)pyridine-3-carboxamide], for which the figures for the Ki in test [1] and in test [2] were 0.0075 µM and 0.0334 µM, respectively. Taken in the same sequence, the figures for `CCOc1ccc(C(=O)Nc2ccc(C3CNCCO3)nc2)cc1` (racemic) [Example 13, (RS)-4-Ethoxy-N-(6-morpholin-2-yl-3-pyridyl)benzamide] were 0.0124 µM and 0.328 µM.

In the case of `Clc1ccc(Nc2ccc([C@@H]3CNCCO3)nc2)nc1` [Example 20, N-(5-Chloro-2-pyridyl)-6-[(2S)-morpholin-2-yl]pyridin-3-amine], the results for the Ki in test [1] and in test [2] were 0.0019 µM and 0.0751 µM, respectively. On to `CCOc1n[nH]c(C(=O)Nc2ccc([C@@H]3CNCCO3)nc2)c1Cl` [Example 106, 4-Chloro-3-ethoxy-N-[6-[(2S)-morpholin-2-yl]-3-pyridyl]-1H-pyrazole-5-carboxamide], for which the Ki in test [2] was found to be 0.137 µM. Still for that read-out and setting: the figure for `O=C(Nc1ccc([C@@H]2CNCCO2)nc1)c1cccc(Cl)c1` [Example 32, 3-Chloro-N-[6-[(2S)-morpholin-2-yl]-3-pyridyl]benzamide] is 0.0338 µM; for `CCOc1n[nH]c(C(=O)Nc2ccc(C3CNCCO3)nc2)c1Cl` (racemic) [Example 74, (RS)-4-Chloro-3-ethoxy-N-(6-morpholin-2-yl-3-pyridyl)-1H-pyrazole-5-carboxamide] it is 0.066 µM; for `CCOc1n[nH]c(C(=O)Nc2ccc([C@H]3CNCCO3)nc2)c1Cl` [Example 100, 4-Chloro-3-ethoxy-N-[6-[(2R)-morpholin-2-yl]-3-pyridyl]-1H-pyrazole-5-carboxamide] it is 0.123 µM. Still for that read-out and setting: the figure for `O=C(Nc1ccc(C2CNCCO2)nc1)c1cccc(Cl)c1` (racemic) [Example 12, (RS)-3-Chloro-N-(6-morpholin-2-yl-3-pyridyl)benzamide] is 0.0889 µM; for `O=C(Nc1ccc(C2CNCCO2)nc1)c1ccnc(C(F)(F)F)c1` (racemic) [Example 16, (RS)—N-(6-Morpholin-2-yl-3-pyridyl)-2-(trifluoromethyl)pyridine-4-carboxamide] it is 0.145 µM. For `O=C(Nc1ccc(C2CNCCO2)nc1)c1[nH]nc(OCC(F)(F)F)c1Cl` (racemic) [Example 75, (RS)-4-Chloro-N-(6-morpholin-2-yl-3-pyridyl)-3-(2,2,2-trifluoroethoxy)-1H-pyrazole-5-carboxamide], in test [2], the Ki came out at 0.0133 µM. Still for that read-out and setting: the figure for `FC(F)(F)c1ccc(Nc2cnc(C3CNCCO3)c(Cl)c2)nc1` (racemic) [Example 103, (RS)-5-Chloro-6-morpholin-2-yl-N-[5-(trifluoromethyl)-2-pyridyl]pyridin-3-amine] is 0.122 µM; for `O=C(Nc1ccc([C@H]2CNCCO2)nc1)c1[nH]nc(OCC(F)(F)F)c1Cl` [Example 101, 4-Chloro-N-[6-[(2R)-morpholin-2-yl]-3-pyridyl]-3-(2,2,2-trifluoroethoxy)-1H-pyrazole-5-carboxamide] it is 0.0225 µM; for `Fc1cc(Nc2ccc(Cl)cn2)cnc1C1CNCCO1` (racemic) [Example 110, (RS)—N-(5-Chloro-2-pyridyl)-5-fluoro-6-morpholin-2-yl-pyridin-3-amine] it is 1.1 µM. For `O=C(Nc1ccc([C@H]2CNCCO2)nc1)c1ccnc(C(F)(F)F)c1` [Example 54, N-[6-[(2R)-Morpholin-2-yl]-3-pyridyl]-2-(trifluoromethyl)pyridine-4-carboxamide], the Ki in test [2] stood at 0.283 µM. As to `O=C(Nc1ccc([C@@H]2CNCCO2)nc1)c1ccnc(C(F)(F)F)c1` [Example 34, N-[6-[(2S)-Morpholin-2-yl]-3-pyridyl]-2-(trifluoromethyl)pyridine-4-carboxamide], the Ki in test [2] was 0.147 µM. The same measure, in the same setting: the figure for `O=C(Nc1ccc([C@@H]2CNCCO2)nc1)c1[nH]nc(OCC(F)(F)F)c1Cl` [Example 105, 4-Chloro-N-[6-[(2S)-morpholin-2-yl]-3-pyridyl]-3-(2,2,2-trifluoroethoxy)-1H-pyrazole-5-carboxamide] is 0.0176 µM.
